Where “and” joins values, the source holds several entries; their conditions need not be identical. Equal entries are not always repeated.
Key:
[1] = test system: Drosophila melanogaster wild type strain; test: Topical toxicity bioassay, wild type fruit fly; type: in vivo; details: for Wild/type LD50 values / LD50, D. melanogaster: topical application; for Wild/type LD50 values: mortality 24 hours after treatment; for % Mortality at LD50 of wild/type Drosophila melanogaster strain, Wild/type: topical, 24 hour; for LD50, D. melanogaster: 24 hours
OAMB [2] = biological target: T1, OAMB (Drosophila melanogaster, UniProt Q7JQF1, L268I/L487I/L521I/T180I); test: Saturation binding of 3H-yohimbine to membranes of COS-7 cells expressing OAMB; parameters: Oligonucleotides designed to amplify the open reading frame of Drosophila melanogaster OAMB; expressed in transfected cells
Pa oa1 [3] = biological target: T2, Pa oa1 (Periplaneta americana, UniProt Q7YWB7); test: Saturation binding of 3H-yohimbine to membranes of COS-7 cells expressing Pa oa1
Pa oa1 [4] = biological target: T2, Pa oa1; test: Intracellular calcium (Fura-2) in HEK-293 cells expressing Pa oa1; type: cell-based
Pa oa1 [5] = biological target: T2, Pa oa1; test: cAMP levels in HEK-293 cells expressing Pa oa1; type: cell-based
Method: (§1) Twenty-four hours before cell treatment, about 300,000 HEK-293 cells are plated in about 1 ml media with about 0.8 mg G418/ml into multi-well dishes (e.g., 12-well, 4.5 cm^2). For cell treatment, the media is aspirated and about 1 ml PBS with about 300 μM IBMX and the test reagent is added. […] Cells are incubated with about 70% ethanol for about 1 h at about −20° C. The cellular debris is centrifuged and then the supernatant is removed and lyophilized to dryness. The amount of cAMP in the extract is determined by using a cAMP binding protein from the ^3H-cAMP Biotrak assay system (Amersham Biosciences) as per the manufacturer's instructions. To test the effects of calcium chelation on cAMP levels, the cells are incubated with about […] BAPTA/AM (Calbiochem Biochemicals, La Jolla, Calif.) for about 10 min before the addition of the test reagents.
(§2) To determine cAMP levels in cells, about 24-hours before cell treatment, 300,000 HEK-293 cells are plated in 1 mL media with 0.8 mg G418/mL into multi-dishes (4.5 cm2). For cell treatment, the media is aspirated and 1 mL PBS with 300 μM IBMX and the test reagent is added. Cells are incubated at 37° C. for 20 min, and the PBS is then aspirated. Cells are incubated with 70% ethanol for 1 hour at −20° C. The cellular debris is centrifuged and then the supernatant is removed and lyophilized to dryness. The amount of cAMP in the extract is determined by using a cAMP binding protein from the ^3H-cAMP Biotrak assay system (Amersham Biosciences, Piscataway, N.J.) as per the manufacturer's instructions.

Pa oa1 [6] = biological target: T2, Pa oa1; test: Competitive binding against 3H-yohimbine, Pa oa1 membranes; details: Ki, about 2 nM 3H-yohimbine
control HEK-293 cells [7] = test: Intracellular calcium in control HEK-293 cells transfected with empty pCDNA3; type: cell-based, human; details: about 10 μM
OAMB [8] = biological target: T1, OAMB; test: biochemical; type: binding; parameters: Oligonucleotides designed to amplify the open reading frame of Drosophila melanogaster OAMB; expressed in transfected cells
control HEK-293 cells [9] = test: cAMP levels in control HEK-293 cells transfected with pCDNA3 without insert; type: cell-based, human; details: up to about 100 μM
Method: as §1
To determine which second messenger signaling pathways octopamine could affect through the Pa oa1 receptor, HEK-293 cells are stably transfected with pCDNA3-Pa oa1 or pCDNA3 without an insert as a control.

OAMB [10] = biological target: T1, OAMB; test: Specific binding of 3H-yohimbine to OAMB membranes in presence of plant essential oil; parameters: Oligonucleotides designed to amplify the open reading frame of Drosophila melanogaster OAMB; expressed in transfected cells; details: 50 μM test chemical, 4 nM 3H-yohimbine
Method: (§3) The binding activity of ^3H-yohimbine to membranes expressing Pa oa1 or OAMB is performed in the presence and absence of three structurally related plant essential oil monoterpenoids, which are selected based on their insecticidal activity, the absence or presence and location of the hydroxyl group and a spacing group within the molecule. Membrane protein (10 μg) expressing Pa oa1 is incubated with 4 nM ^3H-yohimbine in the presence and absence of 50 μM of the test chemical. The specific activity is calculated as the difference between counts in the presence and absence of test chemical. Specific binding is calculated by determining nonspecific binding with 50 μM tested plant essential oils and subtracting nonspecific binding from total binding.

OAMB [11] = biological target: T1, OAMB; test: cAMP levels in HEK-293 cells expressing OAMB; type: cell-based; parameters: Oligonucleotides designed to amplify the open reading frame of Drosophila melanogaster OAMB; expressed in transfected cells; details: 50 μM, 300 μM IBMX
Method: as §2

Pa oa1 [12] = biological target: T2, Pa oa1; test: Specific binding of 3H-yohimbine to Pa oa1 membranes in presence of plant essential oil; details: for relative potency as inhibitor of 3H-yohimbine binding, Pa oa1 vs OAMB: 50 μM; for effect on specific binding of 3H-yohimbine: 50 μM test chemical, 4 nM 3H-yohimbine
Method: as §3

American cockroach = test: Topical toxicity bioassay, American cockroach; type: in vivo, Periplaneta americana; details: for LD50, P. Americana: topical application, 24 hours
Method: Acetonic solutions of plant essential oils are prepared and different concentrations of each, that give from 10%-100% mortality, are applied by topical application. Controls are treated with the same volume (0.5 μl/insect) of acetone. Replicates, with 5 insects per replicate, are used for each concentration. The mortality is calculated 24 hours after treatment. Data are subjected to probit analysis to determine LD50 value for each compound.

OAMB [13] = biological target: T1, OAMB; test: Intracellular calcium (Fura-2) in HEK-293 cells expressing OAMB; details: 25 μM
Method: Cells are collected by scraping and are suspended at about 750,000 cells/ml in HBSS with about 5 μM Fura-2 AM (Sigma-Aldrich).

[14] = 3H-yohimbine 0.5 to 50 nM, 50 μM phentolamine for nonspecific binding

T2 sequence (Q7YWB7 entry or part of it): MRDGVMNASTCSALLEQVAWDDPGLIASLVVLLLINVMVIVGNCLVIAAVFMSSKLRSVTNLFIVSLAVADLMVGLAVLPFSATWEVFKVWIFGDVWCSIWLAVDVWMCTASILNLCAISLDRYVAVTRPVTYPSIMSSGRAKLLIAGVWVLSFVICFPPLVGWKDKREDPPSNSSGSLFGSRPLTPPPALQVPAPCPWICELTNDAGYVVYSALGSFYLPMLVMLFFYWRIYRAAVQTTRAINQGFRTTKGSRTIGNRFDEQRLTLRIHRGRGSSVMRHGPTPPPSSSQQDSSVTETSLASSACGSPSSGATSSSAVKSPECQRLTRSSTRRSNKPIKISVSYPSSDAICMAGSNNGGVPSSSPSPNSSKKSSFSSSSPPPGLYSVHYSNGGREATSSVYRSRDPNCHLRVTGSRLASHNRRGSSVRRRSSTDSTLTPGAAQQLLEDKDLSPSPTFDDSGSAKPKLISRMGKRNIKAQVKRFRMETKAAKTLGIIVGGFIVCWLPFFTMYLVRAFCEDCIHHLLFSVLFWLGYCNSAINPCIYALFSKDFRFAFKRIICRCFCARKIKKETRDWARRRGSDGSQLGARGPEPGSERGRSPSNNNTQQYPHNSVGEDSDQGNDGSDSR
T1 sequence (Q7JQF1 other isoform, or with tags, fused parts or gaps T180I/L268I/L487I/L524I): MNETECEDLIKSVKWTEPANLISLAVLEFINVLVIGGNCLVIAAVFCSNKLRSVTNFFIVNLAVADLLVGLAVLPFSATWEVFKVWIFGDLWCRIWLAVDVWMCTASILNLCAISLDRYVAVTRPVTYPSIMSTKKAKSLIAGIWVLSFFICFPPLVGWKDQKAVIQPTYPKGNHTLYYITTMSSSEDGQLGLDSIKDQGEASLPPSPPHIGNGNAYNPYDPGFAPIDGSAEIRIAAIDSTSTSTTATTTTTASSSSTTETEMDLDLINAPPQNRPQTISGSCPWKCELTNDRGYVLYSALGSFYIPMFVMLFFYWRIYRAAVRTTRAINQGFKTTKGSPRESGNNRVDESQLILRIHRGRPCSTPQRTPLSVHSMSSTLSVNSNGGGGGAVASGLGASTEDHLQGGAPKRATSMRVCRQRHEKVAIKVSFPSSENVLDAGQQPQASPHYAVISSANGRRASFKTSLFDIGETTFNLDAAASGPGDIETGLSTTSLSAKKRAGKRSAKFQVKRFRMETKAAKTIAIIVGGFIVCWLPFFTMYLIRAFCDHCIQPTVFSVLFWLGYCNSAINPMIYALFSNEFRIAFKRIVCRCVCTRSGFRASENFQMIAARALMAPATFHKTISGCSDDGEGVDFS

In the case of CCC(=O)OCCc1ccccc1 [2-phenylethyl propionate], the “Wild/type LD50 values” [1] is reported as 14.50 μg/fly and the “% Mortality at LD50 of wild/type Drosophila melanogaster strain, Wild/type” value (from here on “% Mortality at LD50 … Wild/type”) [1] is reported as 53.3%.
For COC(=O)[C@@H]1[C@H]2C[C@H]3c4[nH]c5ccccc5c4CCN3C[C@@H]2CC[C@@H]1O [3H-yohimbine], the Kd (OAMB [2]; [14]) was ~0.043 µM and 0.043 µM, the Bmax (OAMB [2]; COS-7 membranes) was “about 8.04 pmol/mg” and the Bmax (OAMB [2]; Table B) was 8.04 pmole receptor/mg protein. The Kd (Pa oa1 [3]; [14]) was ~0.0284 µM and 0.0284 µM, the “Bmax for specific binding” value (Pa oa1 [3]; COS-7 membranes) was “about 11.8 pmol/mg protein” and the “affinity of Pa oa1 to the radioligand higher than OAMB” value (Pa oa1 [3]; Pa oa1 vs OAMB) was “about 1.5 fold”. It also gave a Bmax (Pa oa1 [3]; Table B) of 11.80 pmole receptor/mg protein.
In the case of CC(=O)OCOC(=O)CN(CC(=O)OCOC(C)=O)c1ccccc1OCCOc1ccccc1N(CC(=O)OCOC(C)=O)CC(=O)OCOC(C)=O [BAPTA/AM], the “effect on increase in free intracellular calcium by about 1 μM octopamine” value (Pa oa1 [4]; about 20 μM BAPTA/AM) is reported as “inhibit the increase in free intracellular calcium” and the “cAMP levels in absence vs presence of BAPTA/AM” value (Pa oa1 [5]; about 20 μM BAPTA/AM, basal, about 100 nM or about 1 μM octopamine) is reported as “not found to be statistically different”.
In the case of CN(C)CCCN1c2ccccc2Sc2ccc(Cl)cc21 [Chlorpromazine], the Ki (Pa oa1 [6]) is reported as 0.012 ± 0.003 µM.
NCCc1ccc(O)c(O)c1 [Dopamine] was tested, and the Ki (Pa oa1 [6]) was 56.6 ± 8 µM.
In the case of CCN(CC)CCNC(=O)c1cc(Cl)c(N)cc1OC [Metoclopramine], the Ki (Pa oa1 [6]) is reported as 4.76 ± 1.32 µM.
Cc1ccc(N(CC2=NCCN2)c2cccc(O)c2)cc1 [Phentolamine] was tested, and the Ki (Pa oa1 [6]) was 0.023 ± 0.009 µM.
For NCCc1c[nH]c2ccc(O)cc12 [Serotonin], the Ki (Pa oa1 [6]) was 77.4 ± 11.6 µM.
With NCCc1ccc(O)cc1 [Tyramine, tyramine] the “effect on intracellular calcium levels” value (control HEK-293 cells [7]) was “Neither about 10 μM octopamine nor about 10 μM tyramine modulates intracellular calcium levels”, the Ki (OAMB [8]) was about 33.8 µM and the “effect on cAMP levels” value (control HEK-293 cells [9]) was “neither DL-octopamine nor tyramine at concentrations up to about 100 μM has significant effects on cAMP levels”. The “concentration that increases intracellular calcium” value (Pa oa1 [4]) was at least 1 µM, the “effect on intracellular calcium” value (Pa oa1 [4]; about 100 nM) was “does not modulate intracellular calcium levels” and the “increase in tyramine concentration compared to about 10 nM octopamine required for similar response” value (Pa oa1 [4]; calcium and cAMP assays) was “about 100 fold”. The EC50 (Pa oa1 [5]; 300 μM IBMX, read-out: EC50 for increase in cAMP) was about 97.7 µM, the fold induction at 100 µM (Pa oa1 [5]; HEK293, 20 min, about 100 μM amine, read-out: increase in cAMP) was about 215 and the cAMP concentration (Pa oa1 [5]; about 10 nM amine, basal about 0.48 pmol cAMP) was “about 0.50 pmol cAMP”. The cAMP (Pa oa1 [5]; about 1 μM amine) was “about 1.2 pmol” and the Ki (Pa oa1 [6]) was ~31 µM and 31 µM.
With OCC=Cc1ccccc1 [cinnamic alcohol, 3-phenyl-2-propen-1-ol] the “effect on specific binding of 3H-yohimbine” value (from here on “effect on specific binding”) (OAMB [10]) was “decrease the binding of ^3H-yohimbine”, the “effect on basal cAMP level” value (OAMB [11]) was “slight increase in cAMP level” and the “changes in [Ca2+]i level” value (Pa oa1 [4]; 25 μM) was “increase [Ca^2+]i through Pa oa1 and OAMB”. The “effect on basal cAMP level” value (Pa oa1 [5]; 50 μM, 300 μM IBMX) was “slight increase in cAMP level”, the “relative potency as inhibitor of 3H-yohimbine binding, Pa oa1 vs OAMB” value (Pa oa1 [12]) was “more potent against OAMB than Pa oa1” and the “effect on specific binding” value (Pa oa1 [12]) was “decrease the binding of ^3H-yohimbine”. The “LD50, P. Americana” value (American cockroach) was 98 μg/insect, the “changes in [Ca2+]i level” value (OAMB [13]) was “increase [Ca^2+]i through Pa oa1 and OAMB” and the “rank of potency based on increased [Ca2+]i level” value (OAMB [13]) was “the most potent agent tested in this example”. For the same compound, the “speed of increase in [Ca2+]i” value (OAMB [13]) was “slower than the other two chemicals”, the “LD50, D. melanogaster” value [1] was 1.65 μg/insect and the “Wild/type LD50 values” [1] was 1.65 μg/fly. For the same compound, the “% Mortality at LD50 … Wild/type” value [1] was 30.0%.
With C=CCc1ccc(O)c(OC)c1 [eugenol, 2-methoxy-4-(2-propenyl)phenol] the “effect on specific binding” value (OAMB [10]) was “decrease the binding of ^3H-yohimbine”, the “effect on basal cAMP level” value (OAMB [11]) was “slightly decreased cAMP level” and the “changes in [Ca2+]i level” value (Pa oa1 [4]; 25 μM) was “increase [Ca^2+]i through Pa oa1 and OAMB”. The “rank of potency based on increased [Ca2+]i level” value (Pa oa1 [4]; 25 μM) was “the most potent agent tested in this example”, the inhibition at 50 µM (Pa oa1 [5]; HEK293, 20 min, 50 μM, 300 μM IBMX, basal cAMP, read-out: decrease in cAMP level) was 24% and the “relative potency as inhibitor of 3H-yohimbine binding, Pa oa1 vs OAMB” value (Pa oa1 [12]) was “more potent inhibitors against Pa oa1 than OAMB”. For the same compound, the “effect on specific binding” value (Pa oa1 [12]) was “decrease the binding of ^3H-yohimbine”, the “more toxic against American cockroach than cinnamic alcohol” value (American cockroach; in vivo) was “about 2 fold” and the “more toxic against American cockroach than trans-anethole” value (American cockroach; in vivo) was “about 27 fold”. For the same compound, the “LD50, P. Americana” value (American cockroach) was 47 μg/insect, the “changes in [Ca2+]i level” value (OAMB [13]) was “increase [Ca^2+]i through Pa oa1 and OAMB” and the “more toxic against wild type flies than trans-anethole” value ([1]; in vivo) was 3 fold. The “LD50, D. melanogaster” value [1] was 1.90 μg/insect, the “Wild/type LD50 values” [1] was 1.90 μg/fly and the “% Mortality at LD50 … Wild/type” value [1] was 53.3%.
With CC(C)=CCCC(C)=CCO [geraniol, 3,7-dimethyl-2,6-octadien-1-ol] the “Wild/type LD50 values” [1] was 10.50 μg/fly and the “% Mortality at LD50 … Wild/type” value [1] was 60.0%.
COC(=O)c1ccccc1O [methyl salicylate, 2-hydroxybenzoic acid methyl ester] was tested, and the “Wild/type LD50 values” [1] was 7.50 μg/fly and the “% Mortality at LD50 … Wild/type” value [1] was 40.0%.
In the case of Cc1ccc(C(C)C)cc1 [p-cymene, methyl(1-methylethyl)benzene], the “Wild/type LD50 values” [1] is reported as 25.00 μg/fly and the “% Mortality at LD50 … Wild/type” value [1] is reported as 40.0%.
For CC=Cc1ccc(OC)cc1 [trans-anethole, 1-methoxy-4-(1-propenyl)benzene], the “effect on specific binding” value (OAMB [10]) was “does not have a significant effect on binding to OAMB”, the “increase in cAMP level” value (OAMB [11]; basal cAMP) was 22% and the “speed of increase in [Ca2+]i” value (Pa oa1 [4]; 25 μM) was “slower than eugenol and cinnamic alcohol”. The “effect on specific binding” value (Pa oa1 [12]) was “decreases the ^3H-yohimbine binding activity to only Pa oa1” and the “changes in [Ca2+]i level” value (OAMB [13]) was “increases”.

Reference: US7622269B2, “Methods of screening tyramine- and octopamine-expressing cells for compounds and compositions having potential insect control activity” (Tyratech, Inc., priority 2004, dated 2009)
